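In this assay, cells in 96-well plates receive the compound at five concentrations for 48 hours. Endpoints are linearly interpolated between the surrounding concentrations. TGI denotes the concentration required for complete inhibition of growth.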
What was measured:
Assay in all cases: DTP human tumour cell line panel, 48 h
[1] = tested on: 786-0 renal
[2] = tested on: A498 renal
[3] = tested on: A549 NSCLC
[4] = tested on: ACHN renal
[5] = tested on: CAKI-1 renal
[6] = tested on: CCRF-CEM leukemia
[7] = tested on: COLO 205 colon
[8] = tested on: DLD-1 colon
[9] = tested on: DMS 114 small cell lung
[10] = tested on: DMS 273 small cell lung
[11] = tested on: EKVX NSCLC
[12] = tested on: HCC-2998 colon
[13] = tested on: HCT-116 colon
[14] = tested on: HCT-15 colon
[15] = tested on: HL-60(TB) leukemia
[16] = tested on: HOP-18 NSCLC
[17] = tested on: HOP-62 NSCLC
[18] = tested on: HOP-92 NSCLC
[19] = tested on: HT29 colon
[20] = tested on: IGROV1 ovarian
[21] = tested on: K-562 leukemia
[22] = tested on: KM12 colon
[23] = tested on: KM20L2 colon
[24] = tested on: LOX IMVI melanoma
[25] = tested on: LXFL 529 NSCLC
[26] = tested on: M14 melanoma
[27] = tested on: M19-MEL melanoma
[28] = tested on: MALME-3M melanoma
[29] = tested on: MOLT-4 leukemia
[30] = tested on: NCI-H226 lung
[31] = tested on: NCI-H23 lung
[32] = tested on: NCI-H460 lung
[33] = tested on: NCI-H522 lung
[34] = tested on: OVCAR-3 ovarian
[35] = tested on: OVCAR-4 ovarian
[36] = tested on: OVCAR-5 ovarian
[37] = tested on: OVCAR-8 ovarian
[38] = tested on: RPMI-8226 leukemia
[39] = tested on: RXF-631 renal
[40] = tested on: SF-268 CNS
[41] = tested on: SF-295 CNS
[42] = tested on: SK-MEL-2 melanoma
[43] = tested on: SK-MEL-28 melanoma
[44] = tested on: SK-MEL-5 melanoma
[45] = tested on: SK-OV-3 ovarian
[46] = tested on: SN12C renal
[47] = tested on: SNB-19 CNS
[48] = tested on: SNB-75 CNS
[49] = tested on: SNB-78 CNS
[50] = tested on: SW-620 colon
[51] = tested on: TK-10 renal
[52] = tested on: U251 CNS
[53] = tested on: UACC-257 melanoma
[54] = tested on: UACC-62 melanoma
[55] = tested on: UO-31 renal
[56] = tested on: XF 498 CNS

Measured: TGI

O=C(O)C1CCC(=O)N1C(=O)C(Cl)c1ccccc1 (stereo unspecified)
> 100 µM: [1] | [2] | [3] | [4] | [5] | [6] | [7] | [8] | [9] | [10] | [11] | [12] | [13] | [14] | [15] | [16] | [17] | [18] | [19] | [20] | [21] | [22] | [23] | [24] | [25] | [26] | [27] | [28] | [29] | [30] | [31] | [32] | [33] | [34] | [35] | [36] | [37] | [38] | [39] | [40] | [41] | [42] | [43] | [44] | [45] | [46] | [47] | [48] | [49] | [50] | [51] | [52] | [53] | [54] | [55] | [56]

— PubChem BioAssay (NCI)
